Reference: patent US20100061982A1, “3-SUBSTITUTED-1H-INDOLE, 3-SUBSTITUTED-1H-PYRROLO[2,3-B]PYRIDINE AND 3-SUBSTITUTED-1H-PYRROLO[3,2-B]PYRIDINE COMPOUNDS, THEIR USE AS MTOR KINASE AND PI3 KINASE INHIBITORS, AND THEIR SYNTHESES” (priority 2008, published 2010)
≈ marks a conversion by molar mass, not a printed value.

What was measured:
[1] = physchem; details: pH 7.4, aqueous buffer
[2] = Buffer Stability (37° C.)
[3] = Plasma Stability (37° C.), nude mouse
[4] = molecular target: PI3K alpha (Homo sapiens, UniProt P42336); assay: PI3K-alpha Fluorescence Polarization Assay; assay type: biochemical; details: read-out: PI3K alpha Mean IC50
[5] = Plasma Stability (37° C.), rat
[6] = Microsome Stability (15 min), human; assay type: in vitro ADME; details: microsomes, Phase I (NADPH), read-out: Microsome Stability (15 min) T ½ Phase I human
[7] = Microsome Stability (15 min), rat; assay type: in vitro ADME; details: microsomes, Phase I (NADPH), read-out: Microsome Stability (15 min) T ½ Phase I rat
[8] = PAMPA permeability pH 7.4
[9] = In vivo blood/plasma and tumor levels of prodrug and metabolites after 50 mg, kg po; details: 50 mg
[10] = test system: acute lymphoblastic leukemia; details: in vivo; cited from earlier work
[11] = test system: human tumor xenograft models; details: chronic oral administration, 400 mg/kg; A549, PC-3, WiDr; cited from earlier work
[12] = molecular target: mTOR (Homo sapiens, UniProt P42345); details: read-out: mTOR IC50; mTOR complexes / mTOR enzymes; cited from earlier work

Chain of PI3K alpha (P42336 whole entry, species assumed): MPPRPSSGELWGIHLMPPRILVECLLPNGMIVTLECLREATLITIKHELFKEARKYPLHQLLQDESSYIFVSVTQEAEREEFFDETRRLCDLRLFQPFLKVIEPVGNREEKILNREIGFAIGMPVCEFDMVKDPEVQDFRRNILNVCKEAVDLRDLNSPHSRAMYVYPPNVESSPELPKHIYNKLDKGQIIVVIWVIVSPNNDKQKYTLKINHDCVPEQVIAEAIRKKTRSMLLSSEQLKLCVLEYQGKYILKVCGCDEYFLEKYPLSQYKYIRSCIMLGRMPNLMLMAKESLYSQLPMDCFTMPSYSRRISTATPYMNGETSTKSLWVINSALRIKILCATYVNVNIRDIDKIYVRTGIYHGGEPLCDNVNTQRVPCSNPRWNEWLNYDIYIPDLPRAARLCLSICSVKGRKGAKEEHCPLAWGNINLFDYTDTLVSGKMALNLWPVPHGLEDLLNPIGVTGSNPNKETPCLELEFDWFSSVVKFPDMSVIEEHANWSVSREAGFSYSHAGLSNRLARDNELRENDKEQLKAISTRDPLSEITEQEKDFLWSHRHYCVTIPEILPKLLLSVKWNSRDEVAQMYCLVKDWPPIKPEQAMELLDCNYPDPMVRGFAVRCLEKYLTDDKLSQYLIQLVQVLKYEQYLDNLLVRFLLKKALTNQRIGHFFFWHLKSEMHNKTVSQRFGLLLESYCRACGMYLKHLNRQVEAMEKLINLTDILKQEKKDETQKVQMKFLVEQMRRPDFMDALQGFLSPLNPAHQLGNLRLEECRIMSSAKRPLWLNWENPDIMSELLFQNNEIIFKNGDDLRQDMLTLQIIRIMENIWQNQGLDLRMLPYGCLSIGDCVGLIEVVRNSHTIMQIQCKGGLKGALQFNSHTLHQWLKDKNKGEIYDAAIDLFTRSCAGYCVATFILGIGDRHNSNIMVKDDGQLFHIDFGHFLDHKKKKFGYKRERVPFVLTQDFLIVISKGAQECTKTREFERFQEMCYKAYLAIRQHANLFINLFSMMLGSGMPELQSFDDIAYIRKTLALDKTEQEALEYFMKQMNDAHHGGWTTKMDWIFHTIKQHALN
Chain of PI3K alpha (P27986 whole entry partner, species assumed): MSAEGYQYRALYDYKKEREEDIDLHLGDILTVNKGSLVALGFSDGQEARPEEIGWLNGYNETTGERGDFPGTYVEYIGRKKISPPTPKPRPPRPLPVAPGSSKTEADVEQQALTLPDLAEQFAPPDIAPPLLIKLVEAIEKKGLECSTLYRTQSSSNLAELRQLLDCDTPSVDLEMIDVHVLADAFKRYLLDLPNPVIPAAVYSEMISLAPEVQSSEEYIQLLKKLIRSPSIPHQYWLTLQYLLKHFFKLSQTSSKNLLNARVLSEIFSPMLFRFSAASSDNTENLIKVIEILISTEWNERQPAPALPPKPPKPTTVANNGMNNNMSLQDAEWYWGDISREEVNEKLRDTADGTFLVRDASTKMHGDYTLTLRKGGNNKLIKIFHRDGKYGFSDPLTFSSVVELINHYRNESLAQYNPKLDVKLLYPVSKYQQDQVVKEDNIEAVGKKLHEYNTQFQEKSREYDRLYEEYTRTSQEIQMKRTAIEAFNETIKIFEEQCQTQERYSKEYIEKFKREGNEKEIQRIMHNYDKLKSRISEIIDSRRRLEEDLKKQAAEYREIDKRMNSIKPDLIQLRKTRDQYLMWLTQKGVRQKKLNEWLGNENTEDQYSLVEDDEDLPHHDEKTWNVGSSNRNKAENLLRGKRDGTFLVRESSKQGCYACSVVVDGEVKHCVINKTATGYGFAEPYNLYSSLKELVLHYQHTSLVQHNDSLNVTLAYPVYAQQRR

COc1ccc2[nH]c(-c3ccccc3)c(/C=C3\Oc4cc(OC(=O)N(c5ccccc5)c5ccccc5)cc(OC(=O)N(c5ccccc5)c5ccccc5)c4C3=O)c2c1 [Example 11, (2Z)-2-[(5-methoxy-2-phenyl-1H-indol-3-yl)methylene]-3-oxo-2,3-dihydro-1-benzofuran-4,6-diyl bis(diphenylcarbamate)]
solubility [1]: 1 µg/mL (≈ 1.27 µM)
Buffer Stability (37° C.) % Remaining (at 16-23 hours) SGF ([2]; SGF): 100%
Buffer Stability (37° C.) % Remaining (at 16-23 hours) SIF ([2]; SIF): 98%
Buffer Stability (37° C.) % Remaining (at 16-23 hours) pH 1 ([2]; pH 1): 99%
Buffer Stability (37° C.) % Remaining (at 16-23 hours) pH 4.5 ([2]; pH 4.5): 103%
Buffer Stability (37° C.) % Remaining (at 16-23 hours) pH 6.6 ([2]; pH 6.6): 100%
Buffer Stability (37° C.) % Remaining (at 16-23 hours) pH 7.4 ([2]; pH 7.4): 100%
Buffer Stability (37° C.) % Remaining (at 16-23 hours) pH 9 ([2]; pH 9): 89%
Plasma Stability (37° C.) % Remaining (3-3.5 hours) nude mouse [3]: 85%
IC50 [4]: > 5.05 µM
Plasma Stability (37° C.) % Remaining (3-3.5 hours) rat [5]: 95%
half-life [6]: 23 min
half-life [7]: > 30 min
PAMPA Pe [8]: 1.14 10e−6 cm/s
plasma prodrug concentration ([9]; 0.5 h): bql, bql
plasma prodrug concentration ([9]; 2 h): bql, bql

CO[C@H]1C[C@@H]2CC[C@@H](C)[C@@](O)(O2)C(=O)C(=O)N2CCCC[C@H]2C(=O)O[C@H]([C@H](C)C[C@@H]2CC[C@@H](OC(=O)C(C)(CO)CO)[C@H](OC)C2)CC(=O)[C@H](C)/C=C(\C)[C@@H](O)[C@@H](OC)C(=O)[C@H](C)C[C@H](C)/C=C/C=C/C=C/1C [Torisel]
activity in NOS/SCID xenograft mouse model of acute lymphoblastic leukemia [10]: active

FC(F)c1nc2ccccc2n1-c1nc(N2CCOCC2)nc(N2CCOCC2)n1 [ZSTK474, 2-(2-difluoromethylbenzoimidazol-1-yl)-4,6-dimorpholino-1,3,5-triazine]
tumor growth in mouse human xenograft cancer models [11]: completely inhibited growth
IC50 [12]: > 10 µM
